Results on four compounds are retold here after ChEMBL document CHEMBL1201862, “PubChem BioAssay data set” (2004).

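Assay format: 96-well plates, 48-hour exposure. The concentration for 50% growth inhibition is given as GI50.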 Active and inactive are the calls of the source. Cut-off read from the data, not from the text of the source: active = GI50 up to about 1.1 µM and inactive = higher. Where only a bound is given, the exact number is not on record here.

Some test systems named below: CAKI-1; DU-145; HCT-15; HL-60; KM12; LOX IMVI; MDA-MB-231; MDA-MB-435; MOLT-4; NCI-H460; NCI/ADR-RES; OVCAR-3; OVCAR-5; OVCAR-8; SF-268; SF-295; SK-MEL-2; SK-MEL-5; SNB-19; UACC-62.
Holding throughout (assay): growth of human tumour cells (NCI), 48 h

Consider `Cc1ccc(SC2=C(N(C)C)C(=O)c3ccccc3C2=O)cc1`, for which the GI50 in the assay with CAKI-1 was 1.53 µM (inactive); in the assay with DU-145, 10.7 µM (inactive); in the assay with HCT-15, 2.45 µM; with HL-60 it was 0.38 µM (active); with KM12 it was 3.06 µM (inactive); with LOX IMVI, 3.35 µM (inactive). Moreover, the GI50 is 4.24 µM (inactive) with MDA-MB-231; 0.444 µM (active) in the assay on MDA-MB-435; 0.82 µM (active) in the assay on MOLT-4; 6.3 µM (inactive) with NCI-H460; 0.847 µM (active) with NCI/ADR-RES; 0.661 µM (active) with OVCAR-3. Further, the GI50 was 12.9 µM (inactive) in the assay with OVCAR-5; 1.91 µM (inactive) in the assay with OVCAR-8; 4.76 µM (inactive) in the assay on SF-268; 11.5 µM (inactive) in the assay on SF-295; 9.73 µM (inactive) in the assay with SK-MEL-2; 2.31 µM (inactive) in the assay with SK-MEL-5. The GI50 in the assay with SNB-19 is 12.3 µM (inactive); in the assay with UACC-62, 4.35 µM (inactive).
As for `c1ccc(CN2CCC(CNc3ncnc4ccccc34)C2)cc1` (stereo not given), the GI50 is > 100 µM (inactive) in the assay with CAKI-1; > 100 µM (inactive) with DU-145; greater than 100 µM in the assay with HCT-15; 25.8 µM (inactive) with HL-60; > 100 µM (inactive) with KM12; 45.3 µM (inactive) in the assay on LOX IMVI. For the same compound, the GI50 was > 100 µM (inactive) in the assay on MDA-MB-231; 45 µM (inactive) in the assay with MDA-MB-435; 34.4 µM (inactive) with MOLT-4; 44.3 µM (inactive) in the assay on NCI-H460; 61.9 µM (inactive) in the assay with NCI/ADR-RES; > 100 µM (inactive) in the assay with OVCAR-3. In addition, the GI50 is > 100 µM (inactive) in the assay on OVCAR-5; 83 µM (inactive) in the assay on OVCAR-8; 51.5 µM (inactive) with SF-268; 51.4 µM (inactive) with SF-295; 38.6 µM (inactive) in the assay on SK-MEL-2; 21.2 µM (inactive) with SK-MEL-5. For the same compound, the GI50 with SNB-19 and in the assay on UACC-62 was > 100 µM (inactive) in each case.
Regarding `c1ccc(C[N+]23CN4CN(CN(C4)C2)C3)cc1`, the GI50 in the assay on CAKI-1 was 45.9 µM (inactive); with DU-145 it was 27.5 µM (inactive); in the assay with HCT-15, 31.4 µM; in the assay on HL-60, 24.1 µM (inactive); in the assay with KM12, 33.2 µM (inactive); with LOX IMVI it was 22 µM (inactive). The GI50 in the assay with MDA-MB-231 is 20.1 µM (inactive); in the assay with MDA-MB-435, 22 µM (inactive); with MOLT-4 it was 22.7 µM (inactive); with NCI-H460, 38.2 µM (inactive); with NCI/ADR-RES it was 78.5 µM (inactive); with OVCAR-3, > 100 µM (inactive). In addition, the GI50 is > 100 µM (inactive) with OVCAR-5; 30.1 µM (inactive) in the assay on OVCAR-8; 29.3 µM (inactive) in the assay on SF-268; > 100 µM (inactive) in the assay on SF-295; 17 µM (inactive) in the assay with SK-MEL-2; 23.9 µM (inactive) in the assay on SK-MEL-5. For the same compound, the GI50 was 26.4 µM (inactive) in the assay on SNB-19 and 17.3 µM (inactive) with UACC-62.
For the compound `O=C(N/N=C1\CCc2ccccc21)N/N=C1\CCc2ccccc21`, the GI50 was > 100 µM (inactive) with CAKI-1; > 100 µM (inactive) with DU-145; greater than 100 µM with HCT-15; > 100 µM (inactive) with HL-60; > 100 µM (inactive) with KM12; > 100 µM (inactive) in the assay on LOX IMVI. Besides, the GI50 in the assay with MDA-MB-231 was 12.9 µM (inactive); in the assay on MDA-MB-435, > 100 µM (inactive); in the assay on MOLT-4 it was > 100 µM (inactive); in the assay on NCI-H460, > 100 µM (inactive); with NCI/ADR-RES it was > 100 µM (inactive); in the assay with OVCAR-3, > 100 µM (inactive). The GI50 in the assay on OVCAR-5, with OVCAR-8, with SF-268, in the assay on SF-295, in the assay with SK-MEL-2 and in the assay on SK-MEL-5 was > 100 µM (inactive) each time. In addition, the GI50 in the assay with SNB-19 and in the assay on UACC-62 was > 100 µM (inactive) each time.
